Where two headings read alike, the source gives them in different places.
Key:
E. coli GC 2270 = assay: MIC, broth microdilution; conditions: Escherichia coli
S. aureus GC 1079 = assay: MIC, broth microdilution; conditions: Staphylococcus aureus
Procedure: Antimicrobial susceptibility testing. The in vitro activities of the antibiotics are determined by the broth microdilution method as recommended by the National Committee for Clinical Laboratory Standards (NCCLS) (1). Mueller-Hinton II broth (MHBII)(BBL Cockeysville, Md.) is the medium employed in the testing procedures. Microtiter plates containing serial dilutions of each antimicrobial agent are inoculated with each organism to yield the appropriate density (10^5 CFU/ml) in a 100 μl final volume. The plates are incubated for 18-22 hours at 35° C. in ambient air.
Representative compounds were first incubated in mouse serum for an hour prior to the in vitro testing against a panel of selected gram-positive and gram-negative bacteria strains. All compounds were also pre-incubated in water for an hour prior to testing as control. Representative compounds of Formula I were incubated in human serum prior to MIC determination.

S. epidermidis GC 4935 = assay: MIC, broth microdilution; conditions: Staphylococcus epidermidis
c. albicans GC 3066 = assay: MIC, broth microdilution
P. aeruginosa GC 2214 = assay: MIC, broth microdilution; conditions: Pseudomonas aeruginosa
S. aureus GC 6335 = assay: MIC, broth microdilution; conditions: Staphylococcus aureus
E. coli GC 2234 = assay: MIC, broth microdilution; conditions: Escherichia coli
E. coli GC 2236 = assay: MIC, broth microdilution; conditions: Escherichia coli
E. faecalis GC 2242 = assay: MIC, broth microdilution; conditions: Enterococcus faecalis
S. pyogenes GC 4563 = assay: MIC, broth microdilution; conditions: Streptococcus pyogenes
S. aureus GC 1131 = assay: MIC, broth microdilution; conditions: Staphylococcus aureus
E. faecium GC 4556 = assay: MIC, broth microdilution; conditions: Enterococcus faecium
E. coli GC 1073 = assay: MIC, broth microdilution; conditions: Escherichia coli
E. coli GC 2235 = assay: MIC, broth microdilution; conditions: Escherichia coli
S. pneumoniae+ GC 4465 = assay: MIC, broth microdilution; conditions: Streptococcus pneumoniae
E. coli GC 2271 = assay: MIC, broth microdilution; conditions: Escherichia coli
E. coli GC 2233 = assay: MIC, broth microdilution; conditions: Escherichia coli
E. coli GC 4559 = assay: MIC, broth microdilution; conditions: Escherichia coli
Staph. aureus Smith = assay: In vivo activity (oral, iv; ED50) against Staph. aureus Smith in mice
Procedure: Representative examples of compounds of Formula I were tested for the oral efficacy using S. aureus Smith in mice.

S. aureus GC 2216 = assay: MIC, broth microdilution; conditions: Staphylococcus aureus
Procedure: Antimicrobial susceptibility testing. The in vitro activities of the antibiotics are determined by the broth microdilution method as recommended by the National Committee for Clinical Laboratory Standards (NCCLS) (1). Mueller-Hinton II broth (MHBII)(BBL Cockeysville, Md.) is the medium employed in the testing procedures. Microtiter plates containing serial dilutions of each antimicrobial agent are inoculated with each organism to yield the appropriate density (10^5 CFU/ml) in a 100 μl final volume. The plates are incubated for 18-22 hours at 35° C. in ambient air. […] Standard Pharmacological Test Procedures
Presented in Tables I-XIII are representative compounds of Formula I which were evaluated against a panel of 40 selected gram-positive and gram-negative bacteria strains by pre-incubation in water, mouse serum or human serum. Representative compounds were first incubated in mouse serum for an hour prior to the in vitro testing against a panel of selected gram-positive and gram-negative bacteria strains. All compounds were also pre-incubated in water for an hour prior to testing as control. Representative compounds of Formula I were incubated in human serum prior to MIC determination.

CCCCCCC(=O)OCOC(=O)N(CC(=O)Nc1cc(N(C)C)c2c(c1O)C(=O)C1=C(O)[C@]3(O)C(=O)C(C(N)=O)=C(O)[C@@H](N(C)C)[C@@H]3C[C@@H]1C2)C(C)(C)C [Example 48, ({[(2-{[(5aR,6aS,7S,10aS)-9-(aminocarbonyl)-4,7-bis(dimethylamino)-1,8,10a,11-tetrahydroxy-10,12-dioxo-5,5a,6,6a,7,10,10a,12-octahydrotetracen-2-yl]amino}-2-oxoethyl)(tert-butyl)amino]carbonyl}oxy)methyl heptanoate]
10.1 mg/kg: ED50 (Staph. aureus Smith; Staphylococcus aureus, in Mus musculus, po, read-out: ED50 SOD (Staph aureus Smith)) | ED50 (Staph. aureus Smith; Staphylococcus aureus, in Mus musculus, po, read-out: ED50 Staph Smith SOD)
2 µg/mL: MIC (S. aureus GC 6335; GC6335, read-out: MINIMAL INHIBITORY CONCENTRATION MIC, Human Serum) | MIC (S. aureus GC 6335; GC6335, read-out: MINIMAL INHIBITORY CONCENTRATION MIC, Mouse Serum) | MIC (S. aureus GC 6335; GC6335, read-out: MINIMAL INHIBITORY CONCENTRATION MIC, Water)
0.5 µg/mL: MIC (E. coli GC 2270; GC2270, read-out: MINIMAL INHIBITORY CONCENTRATION MIC, Mouse Serum) | MIC (S. epidermidis GC 4935; GC4935, read-out: MINIMAL INHIBITORY CONCENTRATION MIC, Human Serum) | MIC (S. epidermidis GC 4935; GC4935, read-out: MINIMAL INHIBITORY CONCENTRATION MIC, Mouse Serum) | MIC (E. coli GC 2234; GC2234, read-out: MINIMAL INHIBITORY CONCENTRATION MIC, Mouse Serum) | MIC (E. faecalis GC 2242; GC2242, read-out: MINIMAL INHIBITORY CONCENTRATION MIC, Mouse Serum) | MIC (E. faecium GC 4556; GC4556, read-out: MINIMAL INHIBITORY CONCENTRATION MIC, Mouse Serum) | MIC (E. coli GC 1073; GC1073, read-out: MINIMAL INHIBITORY CONCENTRATION MIC, Mouse Serum) | MIC (S. aureus GC 2216; GC2216, read-out: MINIMAL INHIBITORY CONCENTRATION MIC, Water)
8 µg/mL: MIC (E. coli GC 2271; GC2271, read-out: MINIMAL INHIBITORY CONCENTRATION MIC, Human Serum)
1.1 mg/kg: ED50 (Staph. aureus Smith; Staphylococcus aureus, in Mus musculus, iv, read-out: ED50 SIV (Staph aureus Smith)) | ED50 (Staph. aureus Smith; iv, read-out: ED50 Staph Smith SIV)
>64 UG/ML: MINIMAL INHIBITORY CONCENTRATION MIC (c. albicans GC 3066; Human Serum) | MINIMAL INHIBITORY CONCENTRATION MIC (c. albicans GC 3066; Mouse Serum)
64 µg/mL: MIC (E. coli GC 2270; GC2270, read-out: MINIMAL INHIBITORY CONCENTRATION MIC, Water) | MIC (E. coli GC 2234; GC2234, read-out: MINIMAL INHIBITORY CONCENTRATION MIC, Water) | MIC (E. coli GC 2236; GC2236, read-out: MINIMAL INHIBITORY CONCENTRATION MIC, Water) | MIC (E. coli GC 1073; GC1073, read-out: MINIMAL INHIBITORY CONCENTRATION MIC, Water) | MIC (E. coli GC 2233; GC2233, read-out: MINIMAL INHIBITORY CONCENTRATION MIC, Water)
0.12 µg/mL: MIC (S. pyogenes GC 4563; GC4563, read-out: MINIMAL INHIBITORY CONCENTRATION MIC, Human Serum) | MIC (S. pyogenes GC 4563; GC4563, read-out: MINIMAL INHIBITORY CONCENTRATION MIC, Mouse Serum) | MIC (S. pyogenes GC 4563; GC4563, read-out: MINIMAL INHIBITORY CONCENTRATION MIC, Water)
> 64 µg/mL: MIC (c. albicans GC 3066; Candida albicans, GC3066, read-out: MINIMAL INHIBITORY CONCENTRATION MIC) | MIC (P. aeruginosa GC 2214; GC2214, read-out: MINIMAL INHIBITORY CONCENTRATION MIC, Human Serum) | MIC (P. aeruginosa GC 2214; GC2214, read-out: MINIMAL INHIBITORY CONCENTRATION MIC, Water) | MIC (E. coli GC 4559; GC4559, read-out: MINIMAL INHIBITORY CONCENTRATION MIC, Water)
16 µg/mL: MIC (E. coli GC 2270; GC2270, read-out: MINIMAL INHIBITORY CONCENTRATION MIC, Human Serum) | MIC (P. aeruginosa GC 2214; GC2214, read-out: MINIMAL INHIBITORY CONCENTRATION MIC, Mouse Serum) | MIC (E. coli GC 2234; GC2234, read-out: MINIMAL INHIBITORY CONCENTRATION MIC, Human Serum) | MIC (E. coli GC 2236; GC2236, read-out: MINIMAL INHIBITORY CONCENTRATION MIC, Human Serum) | MIC (E. coli GC 2235; GC2235, read-out: MINIMAL INHIBITORY CONCENTRATION MIC, Human Serum) | MIC (E. coli GC 2233; GC2233, read-out: MINIMAL INHIBITORY CONCENTRATION MIC, Human Serum)
32 µg/mL: MIC (E. coli GC 1073; GC1073, read-out: MINIMAL INHIBITORY CONCENTRATION MIC, Human Serum) | MIC (E. coli GC 2235; GC2235, read-out: MINIMAL INHIBITORY CONCENTRATION MIC, Water) | MIC (E. coli GC 2271; GC2271, read-out: MINIMAL INHIBITORY CONCENTRATION MIC, Water) | MIC (E. coli GC 4559; GC4559, read-out: MINIMAL INHIBITORY CONCENTRATION MIC, Human Serum)
0.25 µg/mL: MIC (S. aureus GC 1079; GC1079, read-out: MINIMAL INHIBITORY CONCENTRATION MIC, Human Serum) | MIC (S. aureus GC 1079; GC1079, read-out: MINIMAL INHIBITORY CONCENTRATION MIC, Mouse Serum) | MIC (E. coli GC 2236; GC2236, read-out: MINIMAL INHIBITORY CONCENTRATION MIC, Mouse Serum) | MIC (S. aureus GC 1131; GC1131, read-out: MINIMAL INHIBITORY CONCENTRATION MIC, Human Serum) | MIC (S. aureus GC 1131; GC1131, read-out: MINIMAL INHIBITORY CONCENTRATION MIC, Mouse Serum) | MIC (S. aureus GC 1131; GC1131, read-out: MINIMAL INHIBITORY CONCENTRATION MIC, Water) | MIC (E. coli GC 2235; GC2235, read-out: MINIMAL INHIBITORY CONCENTRATION MIC, Mouse Serum) | MIC (S. pneumoniae+ GC 4465; read-out: MINIMAL INHIBITORY CONCENTRATION MIC, Human Serum) | MIC (S. pneumoniae+ GC 4465; read-out: MINIMAL INHIBITORY CONCENTRATION MIC, Mouse Serum) | MIC (S. pneumoniae+ GC 4465; read-out: MINIMAL INHIBITORY CONCENTRATION MIC, Water) | MIC (E. coli GC 2271; GC2271, read-out: MINIMAL INHIBITORY CONCENTRATION MIC, Mouse Serum) | MIC (E. coli GC 2233; GC2233, read-out: MINIMAL INHIBITORY CONCENTRATION MIC, Mouse Serum) | MIC (E. coli GC 4559; GC4559, read-out: MINIMAL INHIBITORY CONCENTRATION MIC, Mouse Serum) | MIC (S. aureus GC 2216; GC2216, read-out: MINIMAL INHIBITORY CONCENTRATION MIC, Human Serum) | MIC (S. aureus GC 2216; GC2216, read-out: MINIMAL INHIBITORY CONCENTRATION MIC, Mouse Serum)
1 µg/mL: MIC (S. aureus GC 1079; GC1079, read-out: MINIMAL INHIBITORY CONCENTRATION MIC, Water) | MIC (S. epidermidis GC 4935; GC4935, read-out: MINIMAL INHIBITORY CONCENTRATION MIC, Water) | MIC (E. faecalis GC 2242; GC2242, read-out: MINIMAL INHIBITORY CONCENTRATION MIC, Human Serum) | MIC (E. faecalis GC 2242; GC2242, read-out: MINIMAL INHIBITORY CONCENTRATION MIC, Water) | MIC (E. faecium GC 4556; GC4556, read-out: MINIMAL INHIBITORY CONCENTRATION MIC, Human Serum) | MIC (E. faecium GC 4556; GC4556, read-out: MINIMAL INHIBITORY CONCENTRATION MIC, Water)
